In ChEMBL document CHEMBL1154540, “Synthesis of 10-substituted triazolyl artemisinins possessing anticancer activity via Huisgen 1,3-dipolar cylcoaddition” (2009):

Experiments:
DLD-1 = assay: Cytotoxicity against human DLD1 cells after 72 hrs by MTT colorimetric assay; format: functional; conditions: DLD-1, 72 h
[1] = Cytotoxicity against human U87 cells after 72 hrs by MTT colorimetric assay; format: functional, U-87MG ATCC; conditions: U-87 MG
HeLa = assay: Cytotoxicity against human HeLa cells after 72 hrs by MTT colorimetric assay; format: functional
SiHa = assay: Cytotoxicity against human SiHa cells after 72 hrs by MTT colorimetric assay; format: functional
[2] = Cytotoxicity against human A172 cells after 72 hrs by MTT colorimetric assay; format: functional; conditions: A 172, 72 h
B16 = assay: Cytotoxicity against mouse B16 cells after 72 hrs by MTT colorimetric assay; format: functional; conditions: B16, 72 h

SMILES	GI50 (DLD-1)	GI50 [1]	GI50 (HeLa)	GI50 (SiHa)	GI50 [2]	GI50 (B16)
C=C(C)c1cn([C@@H]2O[C@@H]3O[C@@]4(C)CC[C@H]5[C@H](C)CC[C@@H]([C@H]2C)[C@@]35OO4)nn1	23000 nM	830 nM	310 nM	1130 nM	1310 nM	1320 nM
C[C@@H]1[C@@H](n2cc(-c3ccccc3)nn2)O[C@@H]2O[C@@]3(C)CC[C@H]4[C@H](C)CC[C@@H]1[C@@]24OO3	29700 nM	2860 nM	720 nM	3220 nM	2500 nM	8780 nM
COc1ccc(-c2cn([C@@H]3O[C@@H]4O[C@@]5(C)CC[C@H]6[C@H](C)CC[C@@H]([C@H]3C)[C@@]46OO5)nn2)cc1	6680 nM	1220 nM	560 nM	350 nM	1210 nM	900 nM
C[C@H]1[C@H](n2cc(-c3ccc(F)cc3)nn2)O[C@@H]2O[C@@]3(C)CC[C@H]4[C@H](C)CC[C@@H]1[C@@]24OO3	140 nM	340 nM	600 nM	350 nM	420 nM	430 nM
C[C@H]1[C@H](n2cc(-c3cccc(Cl)c3)nn2)O[C@@H]2O[C@@]3(C)CC[C@H]4[C@H](C)CC[C@@H]1[C@@]24OO3	14200 nM	160 nM	80 nM	150 nM	370 nM	60 nM
C[C@H]1[C@@H](N=[N+]=[N-])O[C@@H]2O[C@@]3(C)CC[C@H]4[C@H](C)CC[C@@H]1[C@@]24OO3	9440 nM	1970 nM	490 nM	1130 nM	2310 nM	> 50000 nM
C[C@H]1[C@H](N=[N+]=[N-])O[C@@H]2O[C@@]3(C)CC[C@H]4[C@H](C)CC[C@@H]1[C@@]24OO3	> 50000 nM	1060 nM	1930 nM	1470 nM	890 nM	1560 nM
Cc1ccc(-c2cn([C@@H]3O[C@@H]4O[C@@]5(C)CC[C@H]6[C@H](C)CC[C@@H]([C@H]3C)[C@@]46OO5)nn2)cc1	80 nM	110 nM	50 nM	150 nM	330 nM	240 nM
CCCCCc1ccc(-c2cn([C@@H]3O[C@@H]4O[C@@]5(C)CC[C@H]6[C@H](C)CC[C@@H]([C@H]3C)[C@@]46OO5)nn2)cc1	30 nM	80 nM	30 nM	90 nM	100 nM	80 nM
C[C@H]1[C@H](n2cc(-c3ccccc3)nn2)O[C@@H]2O[C@@]3(C)CC[C@H]4[C@H](C)CC[C@@H]1[C@@]24OO3	12100 nM	430 nM	210 nM	540 nM	450 nM	1250 nM
C[C@@H]1[C@@H](N=[N+]=[N-])O[C@@H]2O[C@@]3(C)CC[C@H]4[C@H](C)CC[C@@H]1[C@@]24OO3	> 50000 nM	11200 nM	> 50000 nM	9070 nM	16800 nM	> 50000 nM
C[C@H]1[C@H](n2cc(-c3cc(F)cc(F)c3)nn2)O[C@@H]2O[C@@]3(C)CC[C@H]4[C@H](C)CC[C@@H]1[C@@]24OO3	22900 nM	140 nM	140 nM	200 nM	290 nM	160 nM
C[C@H]1[C@@H](n2cc(-c3ccccc3)nn2)O[C@@H]2O[C@@]3(C)CC[C@H]4[C@H](C)CC[C@@H]1[C@@]24OO3	520 nM	230 nM	130 nM	260 nM	220 nM	300 nM
CC(=O)O[C@H]1C(=O)[C@@]2(C)[C@H]([C@H](OC(=O)c3ccccc3)[C@]3(O)C[C@H](OC(=O)[C@H](O)[C@@H](NC(=O)c4ccccc4)c4ccccc4)C(C)=C1C3(C)C)[C@]1(OC(C)=O)CO[C@@H]1C[C@@H]2O [PACLITAXEL]	10 nM	20 nM	20 nM	30 nM	10 nM	10 nM
